Laboratory results: patent publication US7868026B2, “Therapeutic compounds” (Pfizer Inc., priority 2005, dated 2011)
pIC50, pKi: −log10 of the molar value. Where two headings read alike, the source gives them in different places.

Assays:
Type in all cases: biochemical
CYP3A4 [1] = biological target: T1, CYP3A4 (Homo sapiens, UniProt P08684); assay: Determination of IC50 against CYP3A4 by measurement of inhibition of testosterone metabolism (human liver microsomes, 6-β-OH-testosterone by LC-MS/MS); set-up: 0.1 mg/mL human liver microsomes; conditions: read-out: IC50 (Testo.)
How it was run: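 Human liver microsomes (0.1 mg/mL) incubated with 25 μM testosterone and 1 mM NADPH in 100 mM potassium phosphate, pH 7.4, for eight minutes. 6-β-OH-testosterone measured by LC-MS/MS in MRM mode against an internal standard and quantified from a metabolite standard curve.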

CYP3A4 [2] = biological target: T1, CYP3A4; assay: Determination of IC50 against CYP3A4 by measurement of inhibition of midazolam metabolism (human liver microsomes, 1-hydroxymidazolam by LC-MS/MS); set-up: 0.1 mg/mL human liver microsomes; conditions: 2 μM midazolam, 0.1 mg/mL human liver microsomes
How it was run: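 Human liver microsomes (0.1 mg/mL) incubated 8 min with 2 μM midazolam and 1 mM NADPH in 100 mM potassium phosphate, pH 7.4. 1-Hydroxymidazolam quantified by LC-MS/MS (MRM) as peak area ratio to internal standard against a metabolite standard curve.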

CYP3A4 [3] = biological target: T1, CYP3A4; assay: Determination of compound Kiapp against recombinant CYP3A4 enzyme (BFC fluorescent substrate)
How it was run: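 Recombinant CYP3A4 (5.5 or 8 nM, with or without b5 depending on source) pre-incubated with inhibitor ≥30 min at room temperature in 100 mM sodium phosphate pH 7.0, 5 mM TCEP, 2% DMF. Reaction started with 200 uM NADPH and 5 uM BFC; initial fluorescence rates over 5 min fitted to Morrison tight-binding (non-partial) or Szedlacsek (partial) equations for Kiapp.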

[4] = Baculo. enzyme preparation, read-out: Kiapp (BFC, Baculo.)
[5] = Super. enzyme preparation, read-out: Kiapp (BFC, Super.)

T1 sequence (P08684 whole entry): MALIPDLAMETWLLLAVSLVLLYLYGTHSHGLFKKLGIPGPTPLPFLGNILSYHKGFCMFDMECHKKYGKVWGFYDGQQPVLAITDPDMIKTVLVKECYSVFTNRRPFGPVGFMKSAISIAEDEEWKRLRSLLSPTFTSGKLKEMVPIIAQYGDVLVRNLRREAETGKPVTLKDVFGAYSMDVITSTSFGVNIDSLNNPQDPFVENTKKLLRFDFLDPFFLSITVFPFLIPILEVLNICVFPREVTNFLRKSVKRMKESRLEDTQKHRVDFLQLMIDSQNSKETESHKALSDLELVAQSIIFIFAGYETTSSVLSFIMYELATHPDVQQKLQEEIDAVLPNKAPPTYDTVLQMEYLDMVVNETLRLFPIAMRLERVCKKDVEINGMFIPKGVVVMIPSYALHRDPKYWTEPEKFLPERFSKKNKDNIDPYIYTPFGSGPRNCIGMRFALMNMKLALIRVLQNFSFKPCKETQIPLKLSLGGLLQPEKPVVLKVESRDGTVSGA

| SMILES | pIC50 (CYP3A4 [1]) | pIC50 (CYP3A4 [2]) | pKi (CYP3A4 [3]; [4]) | pKi (CYP3A4 [3]; [5]) |
| --- | --- | --- | --- | --- |
| O=C(c1ccccc1S(=O)(=O)Nc1cccnc1)N1Cc2ccccc2C1 [Example 88, 2-(1,3-dihydro-2H-isoindol-2-ylcarbonyl)-N-pyridin-3-ylbenzenesulfonamide] | 7.55 | 6.73 | 6.44 | 7.32 |
| O=C(NCc1ccc2ncccc2c1)c1ccccc1S(=O)(=O)Nc1cccnc1 [Example 89, 2-[(pyridin-3-ylamino)sulfonyl]-N-(quinolin-6-ylmethyl)benzamide] | 7.22 | 7.27 | < 6.00 | 6.66 |
| COc1ccccc1CNC(=O)c1ccccc1S(=O)(=O)Nc1cccnc1 [Example 90, N-(2-methoxybenzyl)-2-[(pyridin-3-ylamino)sulfonyl]benzamide] | 7.44 | 8.00 | 6.50 | 7.60 |
| Cc1cncc(NS(=O)(=O)c2ccccc2C(=O)NCc2ccc(S(C)(=O)=O)cc2)c1 [Example 159, 2-{[(5-methylpyridin-3-yl)amino]sulfonyl}-N-[4-(methylsulfonyl)benzyl]benzamide] | 6.89 | 7.19 | 6.12 | 6.84 |
| CCOc1ccncc1NS(=O)(=O)c1ccccc1C(=O)N(C)CCOC [Example 160, 2-{[(4-ethoxypyridin-3-yl)amino]sulfonyl}-N-(2-methoxyethyl)-N-methylbenzamide] | 6.69 | 6.89 | < 6.00 | 6.79 |
| COCCN(C)C(=O)c1ccccc1S(=O)(=O)Nc1cnccc1OC [Example 161, N-(2-methoxyethyl)-2-{[(4-methoxypyridin-3-yl)amino]sulfonyl}-N-methylbenzamide] | 6.43 | 6.51 | < 6.00 | 6.38 |
| COCCN(C)C(=O)c1ccccc1S(=O)(=O)Nc1cncc(C)c1 [Example 162, N-(2-methoxyethyl)-N-methyl-2-{[(5-methylpyridin-3-yl)amino]sulfonyl}benzamide] | 6.77 | 7.03 | 6.33 | 7.00 |
| CN(Cc1ccc(F)c(F)c1)C(=O)c1ccccc1S(=O)(=O)Nc1cncc(F)c1 [Example 163, N-(3,4-difluorobenzyl)-2-{[(5-fluoropyridin-3-yl)amino]sulfonyl}-N-methylbenzamide] | 7.09 | 7.31 | 6.58 | 7.24 |
| Cc1ccncc1NS(=O)(=O)c1ccccc1C(=O)N(C)CCC(C)C [Example 164, N-methyl-N-(3-methylbutyl)-2-{[(4-methylpyridin-3-yl)amino]sulfonyl}benzamide] | 7.33 | 7.62 | 6.55 | 7.46 |
| Cc1ccncc1NS(=O)(=O)c1ccccc1C(=O)N(C)Cc1ccc(C(F)(F)F)cc1 [Example 165, N-methyl-2-{[(4-methylpyridin-3-yl)amino]sulfonyl}-N-[4-(trifluoromethyl)benzyl]benzamide] | 7.27 | 7.37 | 6.79 | 7.53 |
| Cc1ccncc1NS(=O)(=O)c1ccccc1C(=O)NCc1ccc(S(C)(=O)=O)cc1 [Example 169, 2-{[(4-methylpyridin-3-yl)amino]sulfonyl}-N-[4-(methylsulfonyl)benzyl]benzamide] | 6.40 | 6.86 | < 6.00 | 6.73 |
| COCCN(C)C(=O)c1ccccc1S(=O)(=O)Nc1cnccc1C [Example 170, N-(2-methoxyethyl)-N-methyl-2-{[(4-methylpyridin-3-yl)amino]sulfonyl}benzamide] | 6.55 | 6.25 | < 6.00 | 6.37 |
| Cc1ccncc1NS(=O)(=O)c1ccccc1C(=O)NCCOc1ccccc1 [Example 171, 2-{[(4-methylpyridin-3-yl)amino]sulfonyl}-N-(2-phenoxyethyl)benzamide] | 7.42 | 7.46 | 6.52 | 7.31 |
| Cc1ccncc1NS(=O)(=O)c1ccccc1C(=O)N(C)Cc1ccc(F)c(F)c1 [Example 172, N-(3,4-difluorobenzyl)-N-methyl-2-{[(4-methylpyridin-3-yl)amino]sulfonyl}benzamide] | 7.47 | 7.36 | 6.76 | 7.66 |

Now those with a higher pIC50 (CYP3A4 [1]), led by results:

| pIC50 (CYP3A4 [1]) | pIC50 (CYP3A4 [2]) | pKi (CYP3A4 [3]; [4]) | pKi (CYP3A4 [3]; [5]) | SMILES |
| --- | --- | --- | --- | --- |
| 7.82 | > 8.52 | 7.74 | 8.31 | COc1cncc(NS(=O)(=O)c2ccccc2C(=O)NC(C)(C)c2ccc(F)c(F)c2)c1 [Example 148, N-[1-(3,4-difluorophenyl)-1-methylethyl]-2-{[(5-methoxypyridin-3-yl)amino]sulfonyl}benzamide] |
| 7.68 | 7.92 | 6.68 | 7.91 | COc1cncc(NS(=O)(=O)c2ccccc2C(=O)NC2CCC(C)CC2)c1 (centres unmarked) [Example 149, 2-{[(5-methoxypyridin-3-yl)amino]sulfonyl}-N-(4-methylcyclohexyl)benzamide] |
| 7.82 | 7.42 | 7.28 | 8.04 | COc1cncc(NS(=O)(=O)c2ccccc2C(=O)NCc2ccc(Cl)cc2F)c1 [Example 150, N-(4-chloro-2-fluorobenzyl)-2-{[(5-methoxypyridin-3-yl)amino]sulfonyl}benzamide] |
| 7.80 | 7.55 | 6.92 | 7.91 | COc1cncc(NS(=O)(=O)c2ccccc2C(=O)NCc2cc(Cl)ccc2F)c1 [Example 151, N-(5-chloro-2-fluorobenzyl)-2-{[(5-methoxypyridin-3-yl)amino]sulfonyl}benzamide] |
| 7.64 | 7.89 | 7.34 | 8.19 | COc1cncc(NS(=O)(=O)c2ccccc2C(=O)NCCc2cccc(Cl)c2)c1 [Example 152, N-[2-(3-chlorophenyl)ethyl]-2-{[(5-methoxypyridin-3-yl)amino]sulfonyl}benzamide] |
| 7.72 | 8.30 | 6.58 | 7.57 | COc1cncc(NS(=O)(=O)c2ccccc2C(=O)NCc2ccc3c(c2)CCO3)c1 [Example 153, N-(2,3-dihydro-1-benzofuran-5-ylmethyl)-2-{[(5-methoxypyridin-3-yl)amino]sulfonyl}benzamide] |
| 7.64 | 8.22 | 7.94 | 8.49 | Cc1cncc(NS(=O)(=O)c2ccccc2C(=O)N(C)CCc2ccccc2C)c1 [Example 154, N-methyl-N-[2-(2-methylphenyl)ethyl]-2-{[(5-methylpyridin-3-yl)amino]sulfonyl}benzamide] |
| 7.82 | 8.10 | 8.55 | 8.80 | Cc1cncc(NS(=O)(=O)c2ccccc2C(=O)NCc2cc(Cl)cc(Cl)c2)c1 [Example 155, N-(3,5-dichlorobenzyl)-2-{[(5-methylpyridin-3-yl)amino]sulfonyl}benzamide] |
| 7.96 | 7.89 | 7.08 | 8.30 | Cc1cncc(NS(=O)(=O)c2ccccc2C(=O)NCc2ccc(F)c(C)c2)c1 [Example 156, N-(4-fluoro-3-methylbenzyl)-2-{[(5-methylpyridin-3-yl)amino]sulfonyl}benzamide] |
| 8.10 | 8.10 | 7.31 | 8.89 | Cc1cncc(NS(=O)(=O)c2ccccc2C(=O)NCc2ccc(C)c(F)c2)c1 [Example 157, N-(3-fluoro-4-methylbenzyl)-2-{[(5-methylpyridin-3-yl)amino]sulfonyl}benzamide] |
| 8.00 | 8.22 | 7.71 | 9.05 | Cc1cncc(NS(=O)(=O)c2ccccc2C(=O)NCc2ccc(F)c(Cl)c2)c1 [Example 158, N-(3-chloro-4-fluorobenzyl)-2-{[(5-methylpyridin-3-yl)amino]sulfonyl}benzamide] |
| 7.59 | 7.64 | 6.71 | 7.45 | Cc1ccc(CNC(=O)c2ccccc2S(=O)(=O)Nc2cnccc2C)cc1F [Example 166, N-(3-fluoro-4-methylbenzyl)-2-{[(4-methylpyridin-3-yl)amino]sulfonyl}benzamide] |
| 7.80 | 8.05 | 6.80 | 7.76 | Cc1cc(CNC(=O)c2ccccc2S(=O)(=O)Nc2cnccc2C)ccc1F [Example 167, N-(4-fluoro-3-methylbenzyl)-2-{[(4-methylpyridin-3-yl)amino]sulfonyl}benzamide] |
| 7.74 | 8.05 | 7.18 | 7.93 | Cc1ccncc1NS(=O)(=O)c1ccccc1C(=O)NCc1ccc(F)c(Cl)c1 [Example 168, N-(3-chloro-4-fluorobenzyl)-2-{[(4-methylpyridin-3-yl)amino]sulfonyl}benzamide] |
| 7.74 | 7.80 | 6.98 | 8.00 | COc1cncc(NS(=O)(=O)c2ccccc2C(=O)N(C)CCOc2ccccc2)c1 [Example 173, 2-{[(5-methoxypyridin-3-yl)amino]sulfonyl}-N-methyl-N-(2-phenoxyethyl)benzamide] |
